The source made the active and inactive calls. No cut-off for these calls is given here.

Data set [1] deals with HCT-116. Briefly: Effect on total STAT3 level in human HCT116 cells at 4 to 12 uM after 20 hrs by Western blot analysis. It is filed as ADME, cell-based. Particulars: hct-116, 20 h. A general note: A western blot detects proteins with antibodies after separation by electrophoresis.
Data set [2] deals with Signal transducer and activator of transcription 3 (Homo sapiens) (UniProt P40763). Briefly: Inhibition of STAT3 phosphorylation at Y705 residue in human HCT116 cells at 10 uM after 20 hrs by Western blot analysis. It is filed as cell-based.
For data set [3] the target is unchanged. In words: Inhibition of STAT3 dimerization in human HCT116 cells assessed as inhibition of STAT3-STAT3 DNA binding activity at 4 to 12 uM incubated for 20 hrs by EMSA. It is filed as cell-based. On the technique in general: Mobility shift assays separate free from complexed probe on a gel.
Data set [4] addresses T1, Signal transducer and activator of transcription 1-alpha/beta (Homo sapiens) (UniProt P42224).
T1 sequence (whole entry): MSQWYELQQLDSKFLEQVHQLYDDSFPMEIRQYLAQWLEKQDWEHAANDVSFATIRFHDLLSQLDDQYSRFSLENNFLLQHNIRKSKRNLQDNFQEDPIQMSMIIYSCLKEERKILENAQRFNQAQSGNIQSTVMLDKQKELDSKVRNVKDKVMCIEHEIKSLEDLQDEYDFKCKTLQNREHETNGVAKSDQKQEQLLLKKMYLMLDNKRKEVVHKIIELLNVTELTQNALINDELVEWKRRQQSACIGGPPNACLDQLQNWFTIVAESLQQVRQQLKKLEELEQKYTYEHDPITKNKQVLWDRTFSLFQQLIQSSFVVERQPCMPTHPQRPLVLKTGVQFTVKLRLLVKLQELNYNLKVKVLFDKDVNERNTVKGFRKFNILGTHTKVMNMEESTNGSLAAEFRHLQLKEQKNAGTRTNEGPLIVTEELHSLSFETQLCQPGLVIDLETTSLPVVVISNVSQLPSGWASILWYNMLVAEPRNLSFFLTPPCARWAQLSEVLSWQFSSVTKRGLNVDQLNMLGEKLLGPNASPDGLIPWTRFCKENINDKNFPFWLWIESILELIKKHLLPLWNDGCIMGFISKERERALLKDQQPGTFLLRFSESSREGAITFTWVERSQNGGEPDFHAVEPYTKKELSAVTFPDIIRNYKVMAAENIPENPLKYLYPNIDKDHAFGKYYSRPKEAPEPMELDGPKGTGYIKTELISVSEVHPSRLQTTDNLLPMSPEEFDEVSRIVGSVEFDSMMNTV
Briefly: Inhibition of STAT1 phosphorylation at Y701 residue in human HCT116 cells at 4 to 12 uM after 20 hrs by Western blot analysis. The data set is classed as cell-based.

The target in data set [5] is T2, Signal transducer and activator of transcription 5A (Homo sapiens) (UniProt P42229).
T2 sequence (whole entry): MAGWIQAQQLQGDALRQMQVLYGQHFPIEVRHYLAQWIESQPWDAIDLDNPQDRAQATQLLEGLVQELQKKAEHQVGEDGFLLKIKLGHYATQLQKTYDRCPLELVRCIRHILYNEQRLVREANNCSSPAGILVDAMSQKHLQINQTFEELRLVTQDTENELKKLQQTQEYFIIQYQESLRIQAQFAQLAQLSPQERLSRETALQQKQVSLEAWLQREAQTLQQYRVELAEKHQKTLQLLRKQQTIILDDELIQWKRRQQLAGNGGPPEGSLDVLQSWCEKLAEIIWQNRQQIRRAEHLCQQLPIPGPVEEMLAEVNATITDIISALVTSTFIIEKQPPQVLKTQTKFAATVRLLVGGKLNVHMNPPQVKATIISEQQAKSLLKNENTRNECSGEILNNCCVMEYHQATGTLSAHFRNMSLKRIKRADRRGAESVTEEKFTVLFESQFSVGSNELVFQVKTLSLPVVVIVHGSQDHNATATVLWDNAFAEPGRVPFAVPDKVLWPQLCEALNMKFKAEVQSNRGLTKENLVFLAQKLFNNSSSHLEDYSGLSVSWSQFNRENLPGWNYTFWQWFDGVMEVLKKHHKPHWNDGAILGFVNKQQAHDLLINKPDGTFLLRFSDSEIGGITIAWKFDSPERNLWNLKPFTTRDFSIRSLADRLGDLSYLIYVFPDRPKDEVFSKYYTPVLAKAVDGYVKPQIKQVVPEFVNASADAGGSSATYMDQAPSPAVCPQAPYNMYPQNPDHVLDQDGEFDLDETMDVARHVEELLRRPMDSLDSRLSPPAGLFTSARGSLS
Briefly: Inhibition of STAT5 phosphorylation at Y694 residue in human HCT116 cells at 4 to 12 uM after 20 hrs by Western blot analysis. The data set is classed as cell-based.

For data set [6], the target named is Mitogen-activated protein kinase; ERK1/ERK2 (Homo sapiens) (UniProt P27361+P28482). Briefly: Inhibition of ERK1/2 phosphorylation in human HCT116 cells at 4 to 12 uM after 20 hrs by Western blot analysis. The data set is classed as cell-based.
The target in data set [7] is Signal transducer and activator of transcription 3 (Homo sapiens) (UniProt P40763). Briefly: Inhibition of STAT3 in human HCT116 cells assessed as decrease in cyclin D1 protein expression level after 20 hrs by Western blot analysis. It is filed as cell-based.
Data set [8] relates to HCT-116. In words: Induction of apoptosis in human HCT116 cells assessed as viable cells at 8 uM after 20 hrs by Annexin V-APC/7-AAD staining-based flow cytometric analysis (reference value: 96.8%). It is filed as functional. Particulars: HCT-116, 20 h, read-out: Activity.
The subject of data set [9] is HCT-116. Briefly: Induction of apoptosis in human HCT116 cells assessed as increase in cleaved caspase3 level after 20 hrs by Western blot analysis. The data set is classed as functional, cell-based.
Data set [10] concerns HCT-116. Briefly: Induction of apoptosis in human HCT116 cells assessed as increase in cleaved caspase7 level after 20 hrs by Western blot analysis. It is filed as functional, cell-based.
Data set [11] relates to HCT-116. In words: Induction of ROS generation in human HCT116 cells at 4 to 12 uM after 20 hrs by DCFH-DA staining-based flow cytometric analysis. It is filed as functional, cell-based. (In flow cytometry, cells or beads pass a laser one at a time.)
Data set [12] deals with Mus musculus. In words: In vivo inhibition of STAT3 in nude mouse xenografted with human HCT116 cells assessed as reduction in p-STAT3 (Y705) level at 10 to 20 mg/kg, ip dosed daily for 15 days by Western blot relative to untreated control. It is filed as functional, organism-based.

Signal transducer and activator of transcription 3 (Homo sapiens), sequence (P40763 whole entry): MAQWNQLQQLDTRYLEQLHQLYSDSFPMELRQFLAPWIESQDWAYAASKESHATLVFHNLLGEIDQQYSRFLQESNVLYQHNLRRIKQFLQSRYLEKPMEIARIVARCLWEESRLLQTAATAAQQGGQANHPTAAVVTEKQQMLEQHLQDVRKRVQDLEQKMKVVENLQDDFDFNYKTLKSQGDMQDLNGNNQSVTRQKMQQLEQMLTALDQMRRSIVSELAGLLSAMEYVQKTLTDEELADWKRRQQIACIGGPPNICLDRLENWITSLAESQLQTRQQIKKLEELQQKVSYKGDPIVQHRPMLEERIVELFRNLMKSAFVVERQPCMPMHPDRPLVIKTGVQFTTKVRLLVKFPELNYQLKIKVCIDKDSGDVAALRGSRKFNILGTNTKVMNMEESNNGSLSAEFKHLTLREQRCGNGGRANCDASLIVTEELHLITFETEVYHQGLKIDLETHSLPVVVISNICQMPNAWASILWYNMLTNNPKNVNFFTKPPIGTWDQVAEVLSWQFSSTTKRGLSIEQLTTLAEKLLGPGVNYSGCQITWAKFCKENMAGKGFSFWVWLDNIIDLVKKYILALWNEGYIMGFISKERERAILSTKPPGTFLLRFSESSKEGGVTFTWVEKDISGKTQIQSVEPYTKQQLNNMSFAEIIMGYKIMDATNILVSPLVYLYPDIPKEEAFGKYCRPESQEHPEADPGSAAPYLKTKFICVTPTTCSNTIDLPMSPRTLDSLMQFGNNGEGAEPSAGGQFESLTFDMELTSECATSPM
Mitogen-activated protein kinase; ERK1/ERK2 (Homo sapiens), sequence (P27361 whole entry, looked up): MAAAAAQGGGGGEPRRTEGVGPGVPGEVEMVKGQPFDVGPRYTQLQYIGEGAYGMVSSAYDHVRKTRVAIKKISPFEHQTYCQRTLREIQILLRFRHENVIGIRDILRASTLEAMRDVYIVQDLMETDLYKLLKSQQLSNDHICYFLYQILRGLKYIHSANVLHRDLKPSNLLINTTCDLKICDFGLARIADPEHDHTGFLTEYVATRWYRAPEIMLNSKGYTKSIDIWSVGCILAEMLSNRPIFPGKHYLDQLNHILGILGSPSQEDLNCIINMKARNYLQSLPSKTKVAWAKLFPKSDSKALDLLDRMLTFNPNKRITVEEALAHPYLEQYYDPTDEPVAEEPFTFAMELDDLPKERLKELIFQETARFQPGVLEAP
Mitogen-activated protein kinase; ERK1/ERK2 (Homo sapiens), sequence (P28482 whole entry, looked up): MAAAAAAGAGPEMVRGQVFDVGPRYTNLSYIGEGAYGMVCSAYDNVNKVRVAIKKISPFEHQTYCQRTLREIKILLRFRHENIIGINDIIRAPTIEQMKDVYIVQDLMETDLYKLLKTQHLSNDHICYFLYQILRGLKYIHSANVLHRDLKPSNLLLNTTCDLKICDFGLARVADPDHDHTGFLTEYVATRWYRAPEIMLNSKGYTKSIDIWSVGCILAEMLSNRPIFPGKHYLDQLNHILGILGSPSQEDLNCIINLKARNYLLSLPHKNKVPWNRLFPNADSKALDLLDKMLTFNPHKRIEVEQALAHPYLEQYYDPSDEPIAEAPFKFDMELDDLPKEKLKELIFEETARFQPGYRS

Turning to `CC(C)c1ccc(CN(Cc2c(F)c(F)c(F)c(F)c2F)c2cccc(S(N)(=O)=O)c2)cc1`, the values for the Activity result in [1], in data set [9] and in [10] were “Not Active”, “Dose-dependent effect” and “Dose-dependent effect”, respectively. Moreover, the inhibition result in [2], in data set [3] and in data set [12] was “Active” in each case. The inhibition entry in data set [4], in [5] and in [6] was “inactive” each time. Moreover, the inhibition entry in [7] was “Dose-dependent effect”. For the same compound, the viability at 8 µM in data set [8] is 89.6%. For the same compound, the outcome in data set [11] was Active.
